Columns and labels:
MDA-MB-436 [1] = test: normalised viability (% of control), CellTiter-Blue; higher = more viable cells (about 100 = DMSO control); conditions: incubation time: 72 h
Procedure, shortened: (§1)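 Each value is normalised viability at a single listed concentration of the series. Breast cancer cell lines in 384-well plates were incubated 72 h with compound and read by CellTiter-Blue fluorescence at 560/590 nm, with vehicle set to 100 and a positive kill control to 0 on every plate.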

HCC1599 [2] = test: as above; conditions: incubation time: 72 h
Procedure, shortened: as §1

MDA-MB-231 [3] = test: as above; conditions: incubation time: 72 h
Procedure, shortened: as §1

HCC1937 [4] = test: as above; conditions: incubation time: 72 h
Procedure, shortened: as §1

CAL-148 [5] = test: as above; conditions: incubation time: 72 h
Procedure, shortened: as §1

BT-474 [6] = conditions: 72 h
Procedure, shortened: (§2)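 Breast cancer cell lines (20 µl suspension) were seeded into 384-well plates holding compound at 5 concentrations in 10-fold steps over a compound-specific 10,000-fold range, then incubated 72 h. Cell death was read first by CellTox Green fluorescence (485/520 nm), then viability by CellTiter-Glo luminescence after 10 min at room temperature. Each plate was normalised to 0.1 % DMSO and a positive kill control. EC50 was fitted from the dose-response curves and censored at the top concentration.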

DU-4475 [7] = conditions: 72 h
Procedure, shortened: as §2

HCC1599 [8] = conditions: 72 h
Procedure, shortened: as §2

MDA-MB-231 [9] = conditions: 72 h
Procedure, shortened: as §2

CAL-85-1 [10] = conditions: 72 h
Procedure, shortened: as §2

HCC1937 [11] = conditions: 72 h
Procedure, shortened: as §2

Hs578T [12] = conditions: 72 h
Procedure, shortened: as §2

HDQ-P1 [13] = conditions: 72 h
Procedure, shortened: as §2

MDA-MB-468 = conditions: 72 h
Procedure, shortened: (§3)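 Viability of breast cancer cell lines was measured with CellTiter-Blue after 72 h of incubation on compound-loaded 384-well plates. Cells were seeded in 20 µl onto compound dissolved in 5 µl medium, and 2.5 µl reagent was added for 2 h at 37 °C before reading at 560/590 nm. EC50 was fitted from percent-inhibition dose-response data censored at the highest concentration, normalised per plate to vehicle and a positive kill control, with zero drug sensitivity score rows dropped.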

CAL-120 = conditions: 72 h
Experimental: (§4)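 Drug sensitivity and resistance testing (DSRT) of breast cancer cell lines in 384-well plates, 5 concentrations in 10-fold dilutions over a compound-specific 10,000-fold range. After 72 h, cytotoxicity was read by CellTox Green fluorescence and viability by CellTiter-Glo luminescence (multiplexed), normalised to DMSO and benzethonium chloride controls. EC50 is the inflection point of the fitted dose-response curve (bottom asymptote free, so it can be relative for partial curves) and is censored at the highest tested concentration. Rows with DSS 0 (no meaningful response) were excluded.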

MFM-223 [14] = conditions: 72 h
Procedure, shortened: as §2

CAL-85-1 [15] = conditions: 72 h; remark: listed apart in the source
Experimental: as §4

CAL-51 = conditions: 72 h
Procedure, shortened: as §2

BT-549 = conditions: 72 h
Procedure, shortened: as §2

MDA-MB-436 [16] = conditions: 72 h
Procedure, shortened: as §2

MDA-MB-453 [17] = conditions: 72 h
Procedure, shortened: as §2

HCC1143 [18] = conditions: 72 h
Procedure, shortened: as §2

SK-BR-3 = conditions: 72 h
Procedure, shortened: as §2

CAL-148 [19] = conditions: 72 h
Procedure, shortened: as §2

MCF-10A = conditions: 72 h
Procedure, shortened: as §2

MFM-223 [20] = conditions: 72 h; remark: listed apart in the source
Procedure, shortened: as §3

BT-474 [21] = conditions: 72 h; remark: listed apart in the source
Procedure, shortened: as §3

HCC1599 [22] = conditions: 72 h; remark: listed apart in the source
Procedure, shortened: as §3

MDA-MB-231 [23] = conditions: 72 h; remark: listed apart in the source
Procedure, shortened: as §3

HCC1143 [24] = conditions: 72 h; remark: listed apart in the source
Procedure, shortened: as §3

Hs578T [25] = conditions: 72 h; remark: listed apart in the source
Procedure, shortened: as §3

MDA-MB-453 [26] = conditions: 72 h; remark: listed apart in the source
Procedure, shortened: as §3

DU-4475 [27] = conditions: 72 h; remark: listed apart in the source
Procedure, shortened: as §3

CAL-85-1 [28] = conditions: 72 h; remark: listed apart in the source
Procedure, shortened: as §3

HDQ-P1 [29] = conditions: 72 h; remark: listed apart in the source
Procedure, shortened: as §3

S=c1[nH]cnc2nc[nH]c12 [Mercaptopurine] gave a normalised viability (MDA-MB-436 [1]; 10 nM) of 89.8%, a normalised viability (MDA-MB-436 [1]; 1000 nM) of 74.1% and a normalised viability (MDA-MB-436 [1]; 10000 nM) of 83%. For the same compound, the normalised viability (HCC1599 [2]; 10 nM) was 103%, the normalised viability (HCC1599 [2]; 1000 nM) was 96.3% and the normalised viability (HCC1599 [2]; 10000 nM) was 106%. For the same compound, the normalised viability (MDA-MB-231 [3]; 10 nM) was 101%, the normalised viability (MDA-MB-231 [3]; 1000 nM) was 95.9% and the normalised viability (MDA-MB-231 [3]; 10000 nM) was 88.7%. The normalised viability (HCC1937 [4]; 10 nM) was 87.5%, the normalised viability (HCC1937 [4]; 1000 nM) was 86.9% and the normalised viability (HCC1937 [4]; 10000 nM) was 48.1%. For the same compound, the normalised viability (CAL-148 [5]; 3 nM) was 99.5%, the normalised viability (CAL-148 [5]; 30 nM) was 98.7% and the normalised viability (CAL-148 [5]; 100 nM) was 92.8%. The “EC50, CellTiter-Glo” value (BT-474 [6]) was 3920 nM, the “EC50, CellTiter-Glo” value (DU-4475 [7]) was 1820 nM and the “EC50, CellTiter-Glo” value (HCC1599 [8]) was 3820 nM. For the same compound, the “EC50, CellTiter-Glo” value (MDA-MB-231 [9]) was 906 nM, the “EC50, CellTiter-Glo” value (CAL-85-1 [10]) was 4410 nM and the “EC50, CellTiter-Glo” value (HCC1937 [11]) was 833 nM. The “EC50, CellTiter-Glo” value (Hs578T [12]) was 985 nM, the “EC50, CellTiter-Glo” value (HDQ-P1 [13]) was 569 nM and the “EC50, CellTiter-Blue viability” value (MDA-MB-468) was 387 nM.
Compound Clc1ccc(C(c2ccccc2Cl)C(Cl)Cl)cc1 (stereo not given) [Mitotane] has a normalised viability (MDA-MB-436 [1]; 10 nM) of 88.9%, a normalised viability (MDA-MB-436 [1]; 1000 nM) of 106% and a normalised viability (MDA-MB-436 [1]; 10000 nM) of 90.9%. It also gave a normalised viability (HCC1599 [2]; 10 nM) of 97%, a normalised viability (HCC1599 [2]; 1000 nM) of 88.2% and a normalised viability (HCC1599 [2]; 10000 nM) of 97.1%. The normalised viability (MDA-MB-231 [3]; 10 nM) was 85.4%, the normalised viability (MDA-MB-231 [3]; 1000 nM) was 94.8% and the normalised viability (MDA-MB-231 [3]; 10000 nM) was 119%. For the same compound, the normalised viability (HCC1937 [4]; 10 nM) was 79.9%, the normalised viability (HCC1937 [4]; 1000 nM) was 91.1% and the normalised viability (HCC1937 [4]; 10000 nM) was 79.4%. For the same compound, the normalised viability (CAL-148 [5]; 3 nM) was 89.2%, the normalised viability (CAL-148 [5]; 30 nM) was 94.2% and the normalised viability (CAL-148 [5]; 100 nM) was 95.7%.
CCN1CCN(c2ccc(Nc3cc(N(C)C(=O)Nc4c(Cl)c(OC)cc(OC)c4Cl)ncn3)cc2)CC1 [NVP-BGJ398] was tested, and the “EC50, CellTox Green” value (CAL-120) was greater than 1000 nM, the “EC50, CellTiter-Glo” value (MFM-223 [14]) was 50.5 nM and the “EC50, CellTiter-Glo” value (Hs578T [12]) was greater than 1000 nM.
Compound COc1cccc2cc(-c3nc([C@H]4CC[C@H](C(=O)O)CC4)n4ncnc(N)c34)[nH]c12 [OSI-027] has a normalised viability (MDA-MB-436 [1]; 10 nM) of 76.6%, a normalised viability (MDA-MB-436 [1]; 1000 nM) of 56.4% and a normalised viability (MDA-MB-436 [1]; 10000 nM) of 31.6%. The normalised viability (HCC1599 [2]; 10 nM) was 106%, the normalised viability (HCC1599 [2]; 1000 nM) was 72.4% and the normalised viability (HCC1599 [2]; 10000 nM) was 47%. The normalised viability (MDA-MB-231 [3]; 10 nM) was 87.4%, the normalised viability (MDA-MB-231 [3]; 1000 nM) was 69.4% and the normalised viability (MDA-MB-231 [3]; 10000 nM) was 25.9%. The normalised viability (HCC1937 [4]; 10 nM) was 71.7%, the normalised viability (HCC1937 [4]; 1000 nM) was 59.8% and the normalised viability (HCC1937 [4]; 10000 nM) was 33.9%. It also gave a normalised viability (CAL-148 [5]; 3 nM) of 86.7%, a normalised viability (CAL-148 [5]; 30 nM) of 87.5% and a normalised viability (CAL-148 [5]; 100 nM) of 82.2%. For the same compound, the “EC50, CellTox Green” value (CAL-85-1 [15]) was greater than 10000 nM, the “EC50, CellTiter-Glo” value (MFM-223 [14]) was 3170 nM and the “EC50, CellTiter-Glo” value (CAL-51) was 2220 nM. The “EC50, CellTiter-Glo” value (BT-549) was 2590 nM, the “EC50, CellTiter-Glo” value (MDA-MB-436 [16]) was 8290 nM and the “EC50, CellTiter-Glo” value (MDA-MB-453 [17]) was 2920 nM. For the same compound, the “EC50, CellTiter-Glo” value (BT-474 [6]) was 2920 nM, the “EC50, CellTiter-Glo” value (DU-4475 [7]) was 1480 nM and the “EC50, CellTiter-Glo” value (MDA-MB-231 [9]) was 8210 nM. The “EC50, CellTiter-Glo” value (HCC1143 [18]) was 1880 nM, the “EC50, CellTiter-Glo” value (SK-BR-3) was 594 nM and the “EC50, CellTiter-Glo” value (CAL-85-1 [10]) was 3800 nM. For the same compound, the “EC50, CellTiter-Glo” value (HCC1937 [11]) was 8710 nM, the “EC50, CellTiter-Glo” value (CAL-148 [19]) was 7160 nM and the “EC50, CellTiter-Glo” value (Hs578T [12]) was 6720 nM. For the same compound, the “EC50, CellTiter-Glo” value (MCF-10A) was 4810 nM, the “EC50, CellTiter-Glo” value (HDQ-P1 [13]) was 938 nM and the “EC50, CellTiter-Blue viability” value (MFM-223 [20]) was 275 nM. The “EC50, CellTiter-Blue viability” value (BT-474 [21]) was 740 nM, the “EC50, CellTiter-Blue viability” value (HCC1599 [22]) was 1210 nM and the “EC50, CellTiter-Blue viability” value (MDA-MB-231 [23]) was 1670 nM. The “EC50, CellTiter-Blue viability” value (HCC1143 [24]) was 1150 nM, the “EC50, CellTiter-Blue viability” value (Hs578T [25]) was 1280 nM and the “EC50, CellTiter-Blue viability” value (MDA-MB-468) was 1960 nM. For the same compound, the “EC50, CellTiter-Blue viability” value (MDA-MB-453 [26]) was 460 nM, the “EC50, CellTiter-Blue viability” value (DU-4475 [27]) was 4630 nM and the “EC50, CellTiter-Blue viability” value (CAL-85-1 [28]) was 1180 nM. The “EC50, CellTiter-Blue viability” value (HDQ-P1 [29]) was 255 nM.

Reference: the supplement of paper PMC4862054
